# Where “and” joins values, the source holds several entries; their conditions need not be identical. Equal entries are not always repeated.
# Experiments:
# [1] = tested on: four non-smoking volunteers (2 men and 2 women); test: Taste identification questionnaire, trained panel (count of 6 repetitions per subject in which the stimulus was given each taste label; level of recognition %); format: in vivo, human; conditions: for Level of Recognition %: Neutral / Level of Recognition %: Salty / Level of Recognition %: Sour / Level of Recognition %: Sweet: four subjects
# Description: (§1) In this test, four non-smoking volunteers (2 men and 2 women) were chosen from 12 people for their performance in taste recognition. Their mean age was 32 years, ranging from 24 to 40 years. […] These four people were trained for several months to recognize and detect the four basic tastes, and also regarding the procedures of sensory and physiological analysis.
# (§2) The four basic tastes (sweet, salty, sour and bitter) were used. The solutions were prepared with citric acid for the sour taste, caffeine for the bitter taste, sodium chloride for the salty taste and sucrose for the sweet taste (all purchased from Sigma Aldrich, France) in Evian water. Evian water was also used as control and blank. Each taste was prepared with the four concentrations mentioned in table 1.
# (§3) The amount of solution to be tested was standardized at 10 ml. In order to impregnate the whole of the oral cavity, the subjects kept the solution in their mouth for 5 s before swallowing it.
# (§4) The sessions were individual and the subjects were asked not to eat or drink anything for at least 1 h before the test. They arrived 15 min before the start of the session in order to acclimatize to the environmental conditions, in particular the temperature of the room (kept constant at 23° C.) and to be resting seated on a comfortable chair. The 16 solutions for testing and two additional samples of water containing solely Evian water, added to the references, were presented monadically following a test order determined from a “balanced incomplete block design”. During a session, 9 samples out of 18 were presented to minimize sensory fatigue. In addition, a sample of Evian was always tested as a “blank” sample in order to avoid the first-order effect (Lawless, H. T. & Heymann, H., 2010, Sensory evaluation of food: Principles and practices. Springer, New York) and was excluded from the analysis. A light signal was sent to give the instruction to test the sample. When the disturbance to the nervous system returned to its baseline level (after approximately 1 min), a second light signal indicated to the subjects that they should complete a questionnaire regarding the stimulus tested previously. The first part of the questionnaire was linked to the identification of the taste (i.e. determining the quality of the taste); the subjects had to choose between five labels: sweet, salty, sour, bitter or neutral. They then had to assign a taste intensity score on an 11-point scale (from 0 “not intense” (i.e. taste of Evian only) to 10 “very intense”) and finally to give a hedonic score on an 11-point scale (from 0 “very unpleasant” to 10 “very pleasant”, 5 being “neutral”).
# (§5) This procedure was repeated for each of the 9 stimuli. A session lasted approximately 45 min including a debriefing at the end of the test to ensure understanding of the sense of the signal variations. The experiment was repeated 12 times per subject, meaning that the data are composed of 6 data sets per subject and per product and 12 data sets for the Evian product per subject. Thus, the database consists of 432 samples.
# [2] = tested on: four non-smoking volunteers (2 men and 2 women); test: Taste intensity score, 11-point scale (0 not intense to 10 very intense); format: in vivo, human; conditions: concentration 4; averaged over 4 subjects, 6 repetitions each
# Description: as §1, §2, §3, §4, §5
# The effect of the taste on the hedonic and intensity scores was analyzed by an analysis of variance (ANOVA) including the product effect, the subject effect and the product-subject interaction. The subject effect was fixed because there were only 4 subjects and the results could only be applied to a particular schema. The differences were considered to be significant at a level of 0.05.
compound,measurement,setting,value
"[Cl-].[Na+] [NaCl, sodium chloride]",Individual recognition score: Neutral,"[1]; Subject 1, dilution 1",0
same,Individual recognition score: Salty,"[1]; Subject 1, dilution 1",6
same,Individual recognition score: Sour,"[1]; Subject 1, dilution 1",0
same,Individual recognition score: Sweet,"[1]; Subject 1, dilution 1",0
same,Individual recognition score: Neutral,"[1]; Subject 1, dilution 2",0
same,Individual recognition score: Salty,"[1]; Subject 1, dilution 2",6
same,Individual recognition score: Sour,"[1]; Subject 1, dilution 2",0
same,Individual recognition score: Sweet,"[1]; Subject 1, dilution 2",0
same,Individual recognition score: Neutral,"[1]; Subject 1, dilution 3",0
same,Individual recognition score: Salty,"[1]; Subject 1, dilution 3",6
same,Individual recognition score: Sour,"[1]; Subject 1, dilution 3",0
same,Individual recognition score: Sweet,"[1]; Subject 1, dilution 3",0
same,Individual recognition score: Neutral,"[1]; Subject 1, dilution 4",0
same,Individual recognition score: Salty,"[1]; Subject 1, dilution 4",6
same,Individual recognition score: Sour,"[1]; Subject 1, dilution 4",0
same,Individual recognition score: Sweet,"[1]; Subject 1, dilution 4",0
same,Individual recognition score: Neutral,"[1]; Subject 2, dilution 1",0
same,Individual recognition score: Salty,"[1]; Subject 2, dilution 1",6
same,Individual recognition score: Sour,"[1]; Subject 2, dilution 1",0
same,Individual recognition score: Sweet,"[1]; Subject 2, dilution 1",0
same,Individual recognition score: Neutral,"[1]; Subject 2, dilution 2",0
same,Individual recognition score: Salty,"[1]; Subject 2, dilution 2",6
same,Individual recognition score: Sour,"[1]; Subject 2, dilution 2",0
same,Individual recognition score: Sweet,"[1]; Subject 2, dilution 2",0
same,Individual recognition score: Neutral,"[1]; Subject 2, dilution 3",0
same,Individual recognition score: Salty,"[1]; Subject 2, dilution 3",6
same,Individual recognition score: Sour,"[1]; Subject 2, dilution 3",0
same,Individual recognition score: Sweet,"[1]; Subject 2, dilution 3",0
same,Individual recognition score: Neutral,"[1]; Subject 2, dilution 4",0
same,Individual recognition score: Salty,"[1]; Subject 2, dilution 4",6
same,Individual recognition score: Sour,"[1]; Subject 2, dilution 4",0
same,Individual recognition score: Sweet,"[1]; Subject 2, dilution 4",0
same,Individual recognition score: Neutral,"[1]; Subject 3, dilution 1",0
same,Individual recognition score: Salty,"[1]; Subject 3, dilution 1",6
same,Individual recognition score: Sour,"[1]; Subject 3, dilution 1",0
same,Individual recognition score: Sweet,"[1]; Subject 3, dilution 1",0
same,Individual recognition score: Neutral,"[1]; Subject 3, dilution 2",0
same,Individual recognition score: Salty,"[1]; Subject 3, dilution 2",6
same,Individual recognition score: Sour,"[1]; Subject 3, dilution 2",0
same,Individual recognition score: Sweet,"[1]; Subject 3, dilution 2",0
same,Individual recognition score: Neutral,"[1]; Subject 3, dilution 3",0
same,Individual recognition score: Salty,"[1]; Subject 3, dilution 3",6
same,Individual recognition score: Sour,"[1]; Subject 3, dilution 3",0
same,Individual recognition score: Sweet,"[1]; Subject 3, dilution 3",0
same,Individual recognition score: Neutral,"[1]; Subject 3, dilution 4",0
same,Individual recognition score: Salty,"[1]; Subject 3, dilution 4",6
same,Individual recognition score: Sour,"[1]; Subject 3, dilution 4",0
same,Individual recognition score: Sweet,"[1]; Subject 3, dilution 4",0
same,Individual recognition score: Neutral,"[1]; Subject 4, dilution 1",0
same,Individual recognition score: Salty,"[1]; Subject 4, dilution 1",5
same,Individual recognition score: Sour,"[1]; Subject 4, dilution 1",0
same,Individual recognition score: Sweet,"[1]; Subject 4, dilution 1",0
same,Individual recognition score: Neutral,"[1]; Subject 4, dilution 2",0
same,Individual recognition score: Salty,"[1]; Subject 4, dilution 2",6
same,Individual recognition score: Sour,"[1]; Subject 4, dilution 2",0
same,Individual recognition score: Sweet,"[1]; Subject 4, dilution 2",0
same,Individual recognition score: Neutral,"[1]; Subject 4, dilution 3",0
same,Individual recognition score: Salty,"[1]; Subject 4, dilution 3",6
same,Individual recognition score: Sour,"[1]; Subject 4, dilution 3",0
same,Individual recognition score: Sweet,"[1]; Subject 4, dilution 3",0
same,Individual recognition score: Neutral,"[1]; Subject 4, dilution 4",0
same,Individual recognition score: Salty,"[1]; Subject 4, dilution 4",6
same,Individual recognition score: Sour,"[1]; Subject 4, dilution 4",0
same,Individual recognition score: Sweet,"[1]; Subject 4, dilution 4",0
same,Level of Recognition %: Neutral,[1]; dilution 1,0%
same,Level of Recognition %: Salty,[1]; dilution 1,96%
same,Level of Recognition %: Sour,[1]; dilution 1,0%
same,Level of Recognition %: Sweet,[1]; dilution 1,0%
same,Level of Recognition %: Neutral,[1]; dilution 2,0%
same,Level of Recognition %: Salty,[1]; dilution 2,100%
same,Level of Recognition %: Sour,[1]; dilution 2,0%
same,Level of Recognition %: Sweet,[1]; dilution 2,0%
same,Level of Recognition %: Neutral,[1]; dilution 3,0%
same,Level of Recognition %: Salty,[1]; dilution 3,100%
same,Level of Recognition %: Sour,[1]; dilution 3,0%
same,Level of Recognition %: Sweet,[1]; dilution 3,0%
same,Level of Recognition %: Neutral,[1]; dilution 4,0%
same,Level of Recognition %: Salty,[1]; dilution 4,100%
same,Level of Recognition %: Sour,[1]; dilution 4,0%
same,Level of Recognition %: Sweet,[1]; dilution 4,0%
same,Individual recognition score: Bitter,"[1]; human, in vivo",0 (15×) and 1
same,Level of Recognition %: Bitter,"[1]; human, in vivo",4% and 0%
same,intensity score,[2],8.6±1.0

# Source: patent US20180188224A1, “METHOD FOR CONSTRUCTING A SENSORY SPACE” (CENTRE SCIENTIFIQUE ET TECHNIQUE DU BATIMENT (CSTB), priority 2015, published 2018)
